Laboratory results: PubChem BioAssay AID1259407 (Chemical Carcinogenesis Research Information System (CCRIS), 2018)
Calls of active or inactive are those of the source. How the calls were made is not given here.

Test system: CCRIS mutagenicity, Ames/micronucleus/aberration tests
Experiment: CCRIS mutagenicity studies
[1] = Test System: AMES SALMONELLA TYPHIMURIUM, Strain/Indicator: TA98, Metabolic Activation: NONE, Method: STANDARD PLATE
[2] = Test System: AMES SALMONELLA TYPHIMURIUM, Strain/Indicator: TA98, Metabolic Activation: RAT, LIVER, S-9, AROCLOR 1254, Method: STANDARD PLATE
[3] = Test System: AMES SALMONELLA TYPHIMURIUM, Strain/Indicator: TA100, Metabolic Activation: NONE, Method: STANDARD PLATE
[4] = Test System: AMES SALMONELLA TYPHIMURIUM, Strain/Indicator: TA100, Metabolic Activation: RAT, LIVER, S-9, AROCLOR 1254, Method: STANDARD PLATE
[5] = Test System: AMES SALMONELLA TYPHIMURIUM, Strain/Indicator: TA98, Metabolic Activation: NONE, Method: PREINCUBATION
[6] = Test System: AMES SALMONELLA TYPHIMURIUM, Strain/Indicator: TA100, Metabolic Activation: NONE, Method: PREINCUBATION
[7] = Test System: AMES SALMONELLA TYPHIMURIUM, Strain/Indicator: TA100, Metabolic Activation: RAT, LIVER, S-9, AROCLOR 1254, Method: PREINCUBATION
[8] = Test System: AMES SALMONELLA TYPHIMURIUM, Strain/Indicator: TA1535, Metabolic Activation: NONE, Method: PREINCUBATION
[9] = Test System: AMES SALMONELLA TYPHIMURIUM, Strain/Indicator: TA1537, Metabolic Activation: NONE, Method: PREINCUBATION

## CCOC(=O)c1[nH]c2ccccc2c1N=Cc1ccc(O)cc1
Test System: AMES SALMONELLA TYPHIMURIUM, Strain/Indicator: TA97, Metabolic Activation: NONE, Method: STANDARD PLATE
  mutagenic call: active; positive
Test System: AMES SALMONELLA TYPHIMURIUM, Strain/Indicator: TA97, Metabolic Activation: RAT, LIVER, S-9, AROCLOR 1254, Method: STANDARD PLATE
  mutagenic call: inactive; negative
[1]
  mutagenic call: inactive; negative
[2]
  mutagenic call: inactive; negative
[3]
  mutagenic call: inactive; negative
[4]
  mutagenic call: inactive; negative
Test System: AMES SALMONELLA TYPHIMURIUM, Strain/Indicator: TA102, Metabolic Activation: NONE, Method: STANDARD PLATE
  mutagenic call: inactive; negative
Test System: AMES SALMONELLA TYPHIMURIUM, Strain/Indicator: TA102, Metabolic Activation: RAT, LIVER, S-9, AROCLOR 1254, Method: STANDARD PLATE
  mutagenic call: inactive; negative

## CC(=O)OC1Cc2cc3cccc4ccc5ccc1c2c5c43 (stereo unspecified)
[1]
  mutagenic call: active; positive
[3]
  mutagenic call: active; positive

## O=[N+]([O-])c1ccc2ccc3c4ccccc4nc4ccc1c2c43
Test System: AMES SALMONELLA TYPHIMURIUM, Strain/Indicator: TA98(1,8-DNP6), Metabolic Activation: NONE
  mutagenic call: active; positive
Test System: AMES SALMONELLA TYPHIMURIUM, Strain/Indicator: TA98(NR), Metabolic Activation: NONE
  mutagenic call: active; positive
Test System: AMES SALMONELLA TYPHIMURIUM, Strain/Indicator: TA98, Metabolic Activation: NONE
  mutagenic call: active; positive

## CCCC(=O)Cl
Test System: AMES SALMONELLA TYPHIMURIUM, Strain/Indicator: TA98, Metabolic Activation: HAMSTER, LIVER, S-9, AROCLOR 1254 (30%), Method: PREINCUBATION
  mutagenic call: inactive; negative
[5]
  mutagenic call: inactive; negative
Test System: AMES SALMONELLA TYPHIMURIUM, Strain/Indicator: TA98, Metabolic Activation: RAT, LIVER, S-9, AROCLOR 1254 (30%), Method: PREINCUBATION
  mutagenic call: inactive; negative
Test System: AMES SALMONELLA TYPHIMURIUM, Strain/Indicator: TA100, Metabolic Activation: HAMSTER, LIVER, S-9, AROCLOR 1254 (30%), Method: PREINCUBATION
  mutagenic call: inactive; negative
[6]
  mutagenic call: inactive; negative
Test System: AMES SALMONELLA TYPHIMURIUM, Strain/Indicator: TA100, Metabolic Activation: RAT, LIVER, S-9, AROCLOR 1254 (30%), Method: PREINCUBATION
  mutagenic call: inactive; negative

## CC(=O)N(O)c1ccc(Oc2c(Cl)cc(Cl)cc2Cl)cc1
[3]
  mutagenic call: inactive; negative
Test System: AMES SALMONELLA TYPHIMURIUM, Strain/Indicator: TA100, Metabolic Activation: RAT, LIVER, S-9, KANECLOR 500, Method: STANDARD PLATE
  mutagenic call: active; positive

## Cc1c([N+](=O)[O-])cnc2c1nc1c(C)cccn12
[1]
  mutagenic call: active; positive
Test System: AMES SALMONELLA TYPHIMURIUM, Strain/Indicator: TA98, Metabolic Activation: RAT, LIVER, CYTOSOL, AROCLOR 1254, Method: STANDARD PLATE
  mutagenic call: active; positive
Test System: AMES SALMONELLA TYPHIMURIUM, Strain/Indicator: TA98, Metabolic Activation: RAT, LIVER, MICROSOMES, AROCLOR 1254, Method: STANDARD PLATE
  mutagenic call: active; positive
[2]
  mutagenic call: active; positive

## O=C1CCCCC1
Test System: AMES SALMONELLA TYPHIMURIUM, Strain/Indicator: TA98, Metabolic Activation: HAMSTER, LIVER, S-9, AROCLOR 1254, Method: PREINCUBATION
  mutagenic call: inactive; negative
[5]
  mutagenic call: inactive; negative
Test System: AMES SALMONELLA TYPHIMURIUM, Strain/Indicator: TA98, Metabolic Activation: RAT, LIVER, S-9, AROCLOR 1254, Method: PREINCUBATION
  mutagenic call: inactive; negative
Test System: AMES SALMONELLA TYPHIMURIUM, Strain/Indicator: TA100, Metabolic Activation: HAMSTER, LIVER, S-9, AROCLOR 1254, Method: PREINCUBATION
  mutagenic call: inactive; negative
[6]
  mutagenic call: inactive; negative
[7]
  mutagenic call: inactive; negative
Test System: AMES SALMONELLA TYPHIMURIUM, Strain/Indicator: TA1535, Metabolic Activation: HAMSTER, LIVER, S-9, AROCLOR 1254, Method: PREINCUBATION
  mutagenic call: inactive; negative
[8]
  mutagenic call: inactive; negative
Test System: AMES SALMONELLA TYPHIMURIUM, Strain/Indicator: TA1535, Metabolic Activation: RAT, LIVER, S-9, AROCLOR 1254, Method: PREINCUBATION
  mutagenic call: inactive; negative
Test System: AMES SALMONELLA TYPHIMURIUM, Strain/Indicator: TA1537, Metabolic Activation: HAMSTER, LIVER, S-9, AROCLOR 1254, Method: PREINCUBATION
  mutagenic call: inactive; negative
[9]
  mutagenic call: inactive; negative
Test System: AMES SALMONELLA TYPHIMURIUM, Strain/Indicator: TA1537, Metabolic Activation: RAT, LIVER, S-9, AROCLOR 1254, Method: PREINCUBATION
  mutagenic call: inactive; negative
Test System: Mouse lymphoma, Strain/Indicator: L5178Y (tk+/tk-), Metabolic Activation: None, Method: Suspension/plate
  mutagenic call: inactive; negative
Test System: Mouse lymphoma, Strain/Indicator: L5178Y (tk+/tk-), Metabolic Activation: Rat, Liver, S-9, Aroclor 1254, Method: Suspension/plate
  mutagenic call: active; positive

## O=C(O)/C=C/c1ccccc1[N+](=O)[O-]
[5]
  mutagenic call: inactive; negative
[1]
  mutagenic call: inactive; negative
[2]
  mutagenic call: inactive; negative
Test System: AMES SALMONELLA TYPHIMURIUM, Strain/Indicator: TA98, Method: PREINCUBATION
  mutagenic call: inactive; negative
[6]
  mutagenic call: inactive; negative
[3]
  mutagenic call: inactive; negative
[7]
  mutagenic call: inactive; negative
[4]
  mutagenic call: inactive; negative
Test System: AMES SALMONELLA TYPHIMURIUM, Strain/Indicator: TA100, Method: PREINCUBATION
  mutagenic call: inactive; negative
[8]
  mutagenic call: inactive; negative
Test System: AMES SALMONELLA TYPHIMURIUM, Strain/Indicator: TA1535, Method: PREINCUBATION
  mutagenic call: inactive; negative
[9]
  mutagenic call: inactive; negative
Test System: AMES SALMONELLA TYPHIMURIUM, Strain/Indicator: TA1537, Method: PREINCUBATION
  mutagenic call: inactive; negative
Test System: AMES SALMONELLA TYPHIMURIUM, Strain/Indicator: TA1538, Metabolic Activation: NONE, Method: PREINCUBATION
  mutagenic call: inactive; negative
Test System: AMES SALMONELLA TYPHIMURIUM, Strain/Indicator: TA1538, Method: PREINCUBATION
  mutagenic call: inactive; negative

## O[C@@H]1C=Cc2c(ccc3c2sc2ccccc23)[C@H]1O
[7]
  mutagenic call: active; positive

## Fc1cccc2c1ccc1ncccc12
Test System: AMES SALMONELLA TYPHIMURIUM, Strain/Indicator: TA100, Metabolic Activation: RAT, LIVER, S-9, PHENOBARBITAL AND 5,6-BENZOFLAVONE, Method: PREINCUBATION
  mutagenic call: active; positive
